Test results reported in patent publication US20250296959A1, “B7-H3 TARGETING PEPTIDES AND CONSTRUCTS THEREOF” (Mariana Oncology Inc., priority 2024, published 2025).
Starred links: 1 amine or outer side, 2 acyl side, 3 side chain; linkers in the order of their positions; H or OH if unused. Positions of bridges follow the written chain, without caps; N, C: chain ends. Non-standard residues stand in square brackets, D forms with d. Residues, ends and D or L forms follow the SMILES beside them. Groups on a side chain read outwards from the residue. *: point of attachment. Ala(1-CH2CO2H-4-piperidyl) = N[C@@H](CC1CCN(CC(=O)O)CC1)C(=O)O; Ala(piperidin-4-yl) = O=C([C@H](CC1CCN([*:3])CC1)N[*:1])[*:2]; DOTA = O=C(O)CN1CCN(CC(=O)O)CCN(CC(=O)*)CCN(CC(=O)O)CC1; Phe(4-NHCONH2) = NC(=O)Nc1ccc(C[C@H](N)C(=O)O)cc1; Trp(5-F) = N[C@@H](Cc1c[nH]c2ccc(F)cc12)C(=O)O; X1 = C[C@@H](c1ccccc1)[C@H](N[*:1])C(=O)[*:2]; X17 = CN1CCC(C[C@H](N[*:1])C(=O)[*:2])CC1; γGlu = O=C(O)[C@H](CCC(=O)[*:2])N[*:1]; Ala(4-THP) = N[C@@H](CC1CCOCC1)C(=O)O; Val(3-OH) = CC(C)(O)[C@H](N)C(=O)O; pGlu = O=C1CC[C@@H](C(=O)O)N1; PEG4 = NCCOCCOCCOCCOCCC(=O)O; Tle = CC(C)(C)[C@H](N)C(=O)O; hLeu = CC(C)CC[C@H](N)C(=O)O; Nle = CCCC[C@H](N)C(=O)O; Orn = NCCC[C@H](N)C(=O)O; PEG1 = NCCOCCC(=O)O

These compounds were tested against T1, human 4lg B7-H3 (Homo sapiens, UniProt Q5ZPR3) (assay: Affinity determination by surface plasmon resonance (SPR) to 4Ig B7-H3). Details: SPR KD—25° C., 4Ig B7-H3; 25° C. flow cell temperature.
T1 sequence (Q5ZPR3 29-534): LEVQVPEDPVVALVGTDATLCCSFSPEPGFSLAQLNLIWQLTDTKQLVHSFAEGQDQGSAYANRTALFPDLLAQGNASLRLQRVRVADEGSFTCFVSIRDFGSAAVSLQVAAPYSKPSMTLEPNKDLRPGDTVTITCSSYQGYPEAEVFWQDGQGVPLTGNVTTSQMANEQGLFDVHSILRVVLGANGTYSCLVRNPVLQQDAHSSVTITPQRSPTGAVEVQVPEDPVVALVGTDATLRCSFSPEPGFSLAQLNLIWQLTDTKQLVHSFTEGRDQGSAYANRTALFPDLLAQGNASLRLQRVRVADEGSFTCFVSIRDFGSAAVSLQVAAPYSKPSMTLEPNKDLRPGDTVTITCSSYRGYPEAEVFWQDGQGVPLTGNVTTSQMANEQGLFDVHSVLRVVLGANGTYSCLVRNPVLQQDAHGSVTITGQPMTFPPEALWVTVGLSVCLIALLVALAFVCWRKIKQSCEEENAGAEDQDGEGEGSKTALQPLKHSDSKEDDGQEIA

| Kd [nM] | SMILES |
| --- | --- |
| 1 to 10 | CCCC[C@H](NC(C)=O)C(=O)N[C@@H](Cc1ccc(O)cc1)C(=O)N[C@H]1CSSC[C@@H](C(=O)N[C@@H](Cc2c[nH]c3ccccc23)C(=O)N[C@@H](Cc2ccccc2)C(=O)N[C@H](C(=O)N[C@H](CCCCNC(=O)CN2CCN(CC(=O)O)CCN(CC(=O)O)CCN(CC(=O)O)CC2)C(N)=O)[C@@H](C)O)NC(=O)[C@H](Cc2ccc(O)cc2)NC(=O)[C@H](C(C)C)NC(=O)[C@H](CC(=O)O)NC(=O)[C@H](Cc2ccc(O)cc2)NC(=O)[C@H](CCCN)NC(=O)CNC(=O)[C@H](C(C)C)NC1=O [compound 63, Ac-Nle-Y-C-V-G-Orn-Y-D-V-Y-C-W-F-Thr-dLys(DOTA)-CONH2] (Ac-[Nle]YCVG[Orn]YDVYCWFT[dK](DOTA)-NH2; disulfide 3-11) |

Same assay, conditions: SPR KD—37° C., 4Ig B7-H3; 37° C. flow cell temperature

| SMILES | Kd [nM] |
| --- | --- |
| CC(=O)N[C@@H](CCC(C)C)C(=O)N[C@@H](Cc1ccc(O)cc1)C(=O)N[C@H]1CSSC[C@@H](C(=O)N[C@@H](Cc2c[nH]c3ccc(F)cc23)C(=O)N[C@H](C(=O)N[C@H](C(=O)N[C@H](C)C(=O)O)C(C)(C)O)[C@@H](C)c2ccccc2)NC(=O)[C@H](Cc2ccc(O)cc2)NC(=O)[C@H](C(C)C)NC(=O)[C@H](CC(=O)O)NC(=O)[C@H](CC2CCN(C(=O)CCOCCOCCOCCOCCNC(=O)CN3CCN(CC(=O)O)CCN(CC(=O)O)CCN(CC(=O)O)CC3)CC2)NC(=O)[C@H](CC2CCN(C)CC2)NC(=O)CNC(=O)[C@H](C(C)(C)C)NC1=O [compound 520, Ac-hLeu-Y-C-Tbg-G-Pip(Me)Ala-Pip(PEG4-DOTA)Ala-D-V-Y-C-5FW-[(2S, 3S)beta-Me-Phe]-hydroxyVal-dAla-COOH] (Ac-[hLeu]YC[Tle]G[X17][Ala(piperidin-4-yl)]([PEG4-DOTA])DVYC[Trp(5-F)][X1][Val(3-OH)][dA]-OH; disulfide 3-11) | < 1 |
| CC(C)CC[C@H](NC(=O)[C@@H]1CCC(=O)N1)C(=O)N[C@@H](Cc1ccc(O)cc1)C(=O)N[C@H]1CSSC[C@@H](C(=O)N[C@@H](Cc2c[nH]c3ccc(F)cc23)C(=O)N[C@H](C(=O)N[C@H](C(=O)N[C@H](CCCCNC(=O)CN2CCN(CC(=O)O)CCN(CC(=O)O)CCN(CC(=O)O)CC2)C(=O)O)C(C)(C)O)[C@@H](C)c2ccccc2)NC(=O)[C@H](Cc2ccc(NC(N)=O)cc2)NC(=O)[C@H](C(C)C)NC(=O)[C@H](CC(=O)O)NC(=O)[C@H](CC2CCOCC2)NC(=O)[C@H](CC2CCNCC2)NC(=O)CNC(=O)[C@H](C(C)(C)C)NC1=O [compound 504, Pyroglutamate-hLeu-Y-C-Tbg-G-PipAla-ThpA-D-V-Aph(Cbm)-C-5FW-[(2S, 3S)beta-Me-Phe]-hydroxyVal-dLys(DOTA)-COOH] ([pGlu][hLeu]YC[Tle]G[Ala(piperidin-4-yl)][Ala(4-THP)]DV[Phe(4-NHCONH2)]C[Trp(5-F)][X1][Val(3-OH)][dK](DOTA)-OH; disulfide 4-12) | < 1 |

Now from value to compound:

| Kd [nM] | SMILES |
| --- | --- |
| 1 to 10 | CC(=O)N[C@@H](CCC(C)C)C(=O)N[C@@H](Cc1ccc(O)cc1)C(=O)N[C@H]1CSSC[C@@H](C(=O)N[C@@H](Cc2c[nH]c3ccc(F)cc23)C(=O)N[C@@H](Cc2ccccc2)C(=O)N2CCC[C@H]2C(=O)N[C@H](CCCCNC(=O)CN2CCN(CC(=O)O)CCN(CC(=O)O)CCN(CC(=O)O)CC2)C(=O)O)NC(=O)[C@H](Cc2ccc(O)cc2)NC(=O)[C@H](C(C)C)NC(=O)[C@H](CC(=O)O)NC(=O)[C@H](CC2CCOCC2)NC(=O)[C@H](CC2CCN(CC(=O)O)CC2)NC(=O)CNC(=O)[C@H](C(C)(C)C)NC1=O [compound 319, Ac-hLeu-Y-C-Tbg-G-[Pip(CH2CO2H)Ala]-ThpA-D-V-Y-C-5FW-F-Pro-dLys(DOTA)-COOH] (Ac-[hLeu]YC[Tle]G[Ala(1-CH2CO2H-4-piperidyl)][Ala(4-THP)]DVYC[Trp(5-F)]FP[dK](DOTA)-OH; disulfide 3-11) |
| 1 to 10 | CC(C)CC[C@H](NC(=O)CCOCCNC(=O)CC[C@H](NC(=O)CN1CCN(CC(=O)O)CCN(CC(=O)O)CCN(CC(=O)O)CC1)C(=O)O)C(=O)N[C@@H](Cc1ccc(O)cc1)C(=O)N[C@H]1CSSC[C@@H](C(=O)N[C@@H](Cc2c[nH]c3ccc(F)cc23)C(=O)N[C@@H](Cc2ccccc2)C(=O)N[C@H](C(N)=O)C(C)(C)O)NC(=O)[C@H](Cc2ccc(O)cc2)NC(=O)[C@H](C(C)C)NC(=O)[C@H](CC(=O)O)NC(=O)[C@H](CC2CCOCC2)NC(=O)[C@H](CCCCN)NC(=O)CNC(=O)[C@H](C(C)(C)C)NC1=O [compound 395, DOTA-gE-PEG1-hLeu-Y-C-Tbg-G-K-ThpA-D-V-Y-C-5FW-F-hydroxyVal-CONH2] ({DOTA-γGlu-PEG1}-[hLeu]YC[Tle]GK[Ala(4-THP)]DVYC[Trp(5-F)]F[Val(3-OH)]-NH2; disulfide 3-11) |
| 10 to 100 | CC(=O)N[C@@H](CCC(C)C)C(=O)N[C@@H](Cc1ccc(O)cc1)C(=O)N[C@H]1CSSC[C@@H](C(=O)N[C@@H](Cc2c[nH]c3ccc(F)cc23)C(=O)N[C@@H](Cc2ccccc2)C(=O)N[C@H](C(=O)O)[C@@H](C)O)NC(=O)[C@H](Cc2ccc(O)cc2)NC(=O)[C@H](C(C)C)NC(=O)[C@H](CC(=O)O)NC(=O)[C@H](CC2CCN(CC(=O)O)CC2)NC(=O)[C@H](CCCCNC(=O)CN2CCN(CC(=O)O)CCN(CC(=O)O)CCN(CC(=O)O)CC2)NC(=O)CNC(=O)[C@H](C(C)(C)C)NC1=O [compound 326, Ac-hLeu-Y-C-Tbg-G-Lys(DOTA)-Pip(CH2COOH)Ala-D-V-Y-C-5FW-F-Thr-COOH] (Ac-[hLeu]YC[Tle]GK(DOTA)[Ala(1-CH2CO2H-4-piperidyl)]DVYC[Trp(5-F)]FT-OH; disulfide 3-11) |
